The text below walks through data of US7030113B2, “Aminobenzimidazoles as selective melanin concentrating hormone receptor antagonists for the treatment of obesity and related disorders” (Schering Corporation, priority 2003, dated 2006).

Each structure is given as a SMILES string.

The target in the experiment is T1, MCH receptor (Homo sapiens, UniProt Q99705).
T1 construct: expressed in transfected cells; host or cells: CHO cells
The experiment in a line: MCH Receptor Binding Assay. The conditions noted are these: membranes from CHO cells expressing the MCH receptor, [125I]-MCH, SPA; read-out: Activity Class (Ki). Here is the method:
MCH Receptor Binding Assay:
Membranes from CHO cells expressing the MCH receptor were prepared by lysing cells with 5 mM HEPES for 15 min at 4C. Cell lysates were centrifuged ([…], 15 min) and the pellet was resuspended in 5 mM HEPES. For each 96-well plate (Microlite, Dynex Technologies), 1 mg of cell membranes were incubated with 10 mg of wheat germ agglutinin SPA beads (Amersham) for 5 min at 4 C in a volume of 10 ml of binding buffer (25 mM HEPES, 10 mM MGCl2, 10 mM NaCl, 5 mM MnCl2, 0.1% BSA). The membrane/bead mixture was centrifuged (1500×g, 3.5 min), the supernatant was aspirated, and the pellet was resuspended in 10 ml binding buffer. The centrifugation, aspiration and resuspension were then repeated. The membrane/bead mixture (100 μl) was then added to 96-well plates containing 50 μl of 500 pM [^125I]-MCH (NEN) and […] of the appropriate concentration of compound (4× the desired final concentration). Nonspecific binding was determined by including 1 μM MCH in the binding reaction. The binding reaction was incubated at room temperature for 2 h. Plates were then analyzed in a TOPCOUNT microplate scintillation counter (Packard). Data was analyzed and Ki values were determined using GraphPad Prism.

T1 sequence (Q99705 whole entry): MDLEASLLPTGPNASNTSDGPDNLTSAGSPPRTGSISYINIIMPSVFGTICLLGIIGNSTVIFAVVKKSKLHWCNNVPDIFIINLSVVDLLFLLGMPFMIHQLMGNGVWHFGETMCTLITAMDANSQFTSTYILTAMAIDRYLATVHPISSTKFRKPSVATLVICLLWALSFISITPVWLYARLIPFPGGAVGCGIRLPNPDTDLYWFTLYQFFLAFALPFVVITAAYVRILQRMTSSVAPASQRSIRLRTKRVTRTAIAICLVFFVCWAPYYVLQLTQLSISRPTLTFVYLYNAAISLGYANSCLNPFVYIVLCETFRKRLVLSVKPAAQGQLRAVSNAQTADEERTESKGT

Take `CN1CCN(CCCN(c2nc3cc(F)c(Cl)cc3n2C)[C@@H]2CC[C@]3(c4cccc(C#N)c4)CC23)CC1` (some centres unmarked) [Example 36]: the Ki is over 0.1 µM.
The same measure for `CN1CCN(CCCN(c2nc3cc(Cl)c(F)cc3[nH]2)[C@@H]2CC[C@]3(c4ccc(C#N)cc4)C[C@H]23)CC1` [Example 35c]: under 0.01 µM.
The same measure for `CN1CCN(CCCN(c2nc3cc(Cl)c(Cl)cc3[nH]2)[C@@H]2CC[C@]3(c4ccc(C#N)cc4)C[C@H]23)CC1` [Example 35b]: 0.01 to 0.03 µM; for `CN1CCN(CCCN(c2nc3cc(F)c(C(F)(F)F)cc3[nH]2)[C@@H]2CC[C@]3(c4ccc(C#N)cc4)CC23)CC1` (some centres unmarked) [Example 35a]: under 0.01 µM.
On to `CN1CCN(CCCN(c2nc3cc(Cl)c(Cl)cc3[nH]2)[C@@H]2CC[C@]3(c4cccc(CN5CCOCC5)c4)C[C@@H]3C2)CC1` [Example 10b], for which the Ki lay within 0.01 to 0.03 µM.
The figure for `CN1CCN(CCCN(c2nc3cc(Cl)c(F)cc3[nH]2)[C@@H]2CC[C@]3(c4cccc(C#N)c4)C[C@@H]3C2)CC1` [Example 8c] is under 0.01 µM.
As to `CN1CCN(CCCN(c2nc3cc(F)c(F)cc3[nH]2)[C@@H]2CC[C@]3(c4cccc(CN5CCOCC5)c4)C[C@@H]3C2)CC1` [Example 10e], the Ki was in the range of 0.01 to 0.03 µM.
For the compound `CN(C)Cc1cccc([C@]23CC[C@@H](N(CCCN4CCN(C)CC4)c4nc5cc(Cl)c(Cl)cc5[nH]4)C[C@H]2C3)c1` [Example 10a], the Ki is under 0.01 µM.
For `CN1CCN(CCCN(c2nc3cc(F)c(F)cc3[nH]2)[C@@H]2CC[C@]3(c4cccc(CN5CC[C@@H](O)C5)c4)CC3C2)CC1` (some centres unmarked) [Example 10f], the Ki is over 0.1 µM.
The same measure for `CN1CCN(CCCN(c2nc3cc(F)c(Cl)cc3[nH]2)[C@@H]2CC[C@]3(c4cccc(Br)c4)CC23)CC1` (some centres unmarked) [Example 30d]: 0.01 to 0.03 µM; for `CC(C)(C)OC(=O)N1CCC(CN(c2nc3cc(Cl)c(Cl)cc3[nH]2)[C@@H]2CC[C@]3(c4cccc(C#N)c4)CC3C2)CC1` (some centres unmarked) [Example 21]: over 0.1 µM.
The same measure for `CN1CCN(CCCN(c2nc3cc(F)c(F)cc3[nH]2)[C@@H]2CC[C@]3(c4cccc(C#N)c4)C[C@H]23)CC1` [Example 30c]: 0.01 to 0.03 µM; for `CN(C)Cc1cccc([C@]23CC[C@@H](N(CCCN4CCN(C)CC4)c4nc5cc(F)c(F)cc5[nH]4)C[C@H]2C3)c1` [Example 10d]: over 0.1 µM.
On to `CN1CCN(CCCN(c2nc3cc(Cl)c(F)cc3[nH]2)[C@@H]2CC[C@]3(c4cccc(C#N)c4)C[C@H]23)CC1` [Example 30b], for which the Ki is under 0.01 µM.
Turning to `CN1CCN(CCCN(c2nc3cc(Cl)c(Cl)cc3[nH]2)[C@@H]2CC[C@]3(c4cccc(C#N)c4)C[C@H]23)CC1` [Example 30a], the Ki is under 0.01 µM.
Take `CN1CCN(CCCN(c2nc3cc(F)c(F)cc3[nH]2)[C@@H]2CC[C@]3(c4cccc(CN5CCCC5)c4)C[C@@H]3C2)CC1` [Example 10c]: the Ki was 0.01 to 0.03 µM.
With `CS(=O)(=O)N1CCC(CN(c2nc3cc(F)c(Cl)cc3[nH]2)[C@@H]2CC[C@]3(c4cccc(C#N)c4)C[C@@H]3C2)CC1` [Example 16c], the Ki was under 0.01 µM.
The same measure for `CS(=O)(=O)N1CCC(CN(c2nc3cc(Cl)c(Cl)cc3[nH]2)[C@@H]2CC[C@]3(c4cccc(C#N)c4)C[C@@H]3C2)CC1` [Example 16a]: under 0.01 µM; for `CS(=O)(=O)N1CCC(CN(c2nc3cc(F)c(F)cc3[nH]2)[C@@H]2CC[C@]3(c4cccc(C#N)c4)C[C@@H]3C2)CC1` [Example 16b]: 0.01 to 0.03 µM.
Take `CN1CCN(CCCN(c2nc3cc(F)c(F)cc3[nH]2)[C@@H]2CC[C@]3(c4cccc(C=O)c4)C[C@@H]3C2)CC1` [Example 9b]: the Ki is 0.01 to 0.03 µM.
`N#Cc1cccc([C@]23CC[C@@H](N(CC4CCNCC4)c4nc5cc(Cl)c(Cl)cc5[nH]4)CC2C3)c1` (some centres unmarked) [Example 22]: the Ki was under 0.01 µM.
With `CN1CCN(CCCN(c2nc3cc(Cl)c(Cl)cc3[nH]2)[C@@H]2CC[C@]3(c4cccc(C=O)c4)C[C@@H]3C2)CC1` [Example 9a], the Ki was 0.01 to 0.03 µM.
The same measure for `CO/N=C/c1cccc([C@]23CC[C@@H](N(CCCN4CCN(C)CC4)c4nc5cc(F)c(F)cc5[nH]4)CC2C3)c1` (some centres unmarked) [Example 24]: 0.01 to 0.03 µM.

For orientation: Ki means a measure of affinity in units of concentration, obtained from inhibition or displacement.
